# In ChEMBL document CHEMBL5154681, “Small Amphiphilic Peptides: Activity Against a Broad Range of Drug-Resistant Bacteria and Structural Insight into Membranolytic Properties” (J Med Chem, 2022):
# Active and inactive are the calls of the source. The rule behind the calls is not given here. Square brackets hold non-standard residues; d marks the D form. Peptide text beside a SMILES is read from it. Dip = N[C@H](C(=O)O)C(c1ccccc1)c1ccccc1; 2Nal = N[C@@H](Cc1ccc2ccccc2c1)C(=O)O
# Legend:
# Cell membrane [1] = test: Membrano-lytic effect in cytoplasmic membrane of Escherichia coli ATCC BAA-2452 assessed as disruption by measuring propidium iodide fluorescence incubated for 1 hr by FACscan flow cytometer analysis; conditions: DDE = dose-dependent effect
# Escherichia coli [2] = test: Bactericidal activity against Escherichia coli ATCC BAA-2452 assessed as reduction of bacterial growth at MIC by counting formed colonies; type: functional, organism-based; conditions: time <= 4.0 hrs, TDE = time-dependent effect
# Staphylococcus aureus [3] = test: Bactericidal activity against methicillin resistant Staphylococcus aureus ATCC BAA-1556 assessed as reduction of bacterial growth at 4 times MIC by counting formed colonies; type: functional, organism-based; conditions: time <= 4.0 hrs, TDE = time-dependent effect
# [4] = Proteolytic stability in human plasma at 100 uM incubated for 24 hrs by Q-TOF LC/MS analysis relative to control; type: ADME, cell-free; conditions: read-out: Stability
# Pseudomonas aeruginosa [5] = test: Antibacterial activity against Pseudomonas aeruginosa ATCC 27883 incubated for 24 hrs by microtiter plate method; type: functional; conditions: Pseudomonas aeruginosa, ATCC 27883, read-out: MIC
# Staphylococcus aureus [6] = test: Antibacterial activity against methicillin resistant Staphylococcus aureus ATCC BAA-1556 after 24 hrs in presence of 150 mM of NaCl by microtiter plate method; type: functional
# [7] = Cytotoxicity against human MRC5 assessed as cell viability at 50 ug/ml incubated for 24 hrs by microplate spectrophotometer analysis method relative to control; type: toxicity, cell-based; conditions: MRC5 cells, at 50 µg/mL, read-out: Activity
# Staphylococcus aureus [8] = test: Antibacterial activity against methicillin resistant Staphylococcus aureus ATCC BAA-1556 incubated for 24 hrs by microtiter plate method; type: functional; conditions: Staphylococcus aureus, ATCC BAA-1556, 24 h, read-out: MIC
# Escherichia coli [9] = test: Bactericidal activity against Escherichia coli ATCC BAA-2452 assessed as reduction of bacterial growth at 4 times MIC by counting formed colonies; type: functional, organism-based; conditions: time <= 4.0 hrs, TDE = time-dependent effect
# Enterococcus faecium [10] = test: Antibacterial activity against Enterococcus faecium ATCC 27270 incubated for 24 hrs by microtiter plate method; type: functional
# Escherichia coli [11] = test: Antibacterial activity against Escherichia coli ATCC BAA-2452 assessed as membrane atrophy at 4 times of MIC incubated for 30 mins by FE-SEM analysis; type: functional, organism-based
# [12] = Cytotoxicity against human MRC-5 assessed as cell viability at 150 ug/ml incubated for 24 hrs by microplate spectrophotometer analysis method relative to control; type: toxicity, cell-based, MRC5; conditions: MRC-5 cells, at 150 µg/mL, read-out: Activity
# Staphylococcus aureus [13] = test: Antibacterial activity against methicillin resistant Staphylococcus aureus ATCC BAA-1556 after 24 hrs in presence of 1 mM of by microtiter plate method; type: functional
# Escherichia coli [14] = test: Antibacterial activity against Escherichia coli ATCC 25922 after 24 hrs in presence of 2 mM CaCl2 at by microtiter plate method; type: functional
# Bacillus subtilis = test: Antibacterial activity against Bacillus subtilis ATCC 6633 incubated for 24 hrs by microtiter plate method; type: functional
# Cell membrane [15] = test: Membrano-lytic effect in cytoplasmic membrane of methicillin resistant Staphylococcus aureus ATCC BAA-1556 assessed as disruption by measuring propidium iodide fluorescence incubated for 1 hr by FACscan flow cytometer analysis; conditions: DDE = dose-dependent effect
# Escherichia coli [16] = test: Antibacterial activity against Escherichia coli ATCC 25922 after 24 hrs in presence of 4.5 mM of KCl at by microtiter plate method; type: functional
# Escherichia coli [17] = test: Antibacterial activity against Escherichia coli ATCC 25922 after 24 hrs in presence of fetal bovine serum by microtiter plate method; type: functional
# Escherichia coli [18] = test: Antibacterial activity against Escherichia coli ATCC 25922 incubated for 24 hrs; type: functional
# Escherichia coli [19] = test: Antibacterial activity against Escherichia coli ATCC BAA-2452 assessed as loss of membrane fluid at 4 times of MIC incubated for 30 mins by FE-SEM analysis; type: functional, organism-based
# Lipid bilayer [20] = test: Induction of membrane disruption in bacterial inner membrane mimic DOPC/DOPG (7:3) large unilamellar vesicles assessed as decrease in particle size of liposome at 1:1 compound to lipid ratio measured after 90 mins by dynamic light scattering analysis; type: cell membranes
# Lipid bilayer [21] = test: Membrano-lytic effect in mammalian membrane mimic DOPC/cholesterol (10:1) large unilamellar vesicles assessed as calcein leakage measured at 50 microg/ml measured upto 100 mins for every 10 mins by multimode microplate reader assay; type: cell membranes; conditions: dose 50.0 µg/ml
# Staphylococcus aureus [22] = test: Antibacterial activity against Staphylococcus aureus ATCC 29213 incubated for 24 hrs by microtiter plate method; type: functional; conditions: Staphylococcus aureus, ATCC 29213, read-out: MIC
# Klebsiella pneumoniae = test: Antibacterial activity against carbapenem-resistant Klebsiella pneumoniae ATCC BAA-2470 incubated for 24 hrs by microtiter plate method; type: functional
# Staphylococcus aureus [23] = test: Antibacterial activity against methicillin resistant Staphylococcus aureus ATCC BAA-1556 after 24 hrs in presence of 2 mM of CaCl2 by microtiter plate method; type: functional
# Staphylococcus aureus [24] = test: Antibacterial activity against methicillin resistant Staphylococcus aureus ATCC BAA-1556 after 24 hrs in presence of 4.5 mM of KCl by microtiter plate method; type: functional
# Pseudomonas aeruginosa [25] = test: Antibacterial activity against Pseudomonas aeruginosa ATCC 10145 incubated for 24 hrs by microtiter plate method; type: functional
# [26] = Selectivity ratio of MIC for antibacterial activity against Pseudomonas aeruginosa ATCC 10145 to MIC for antibacterial activity against imipenem-resistant Pseudomonas aeruginosa ATCC BAA-1744; type: functional
# [27] = Cytotoxicity against HEK293 assessed as cell viability at 50 ug/ml incubated for 24 hrs by microplate spectrophotometer analysis method relative to control; type: toxicity, cell-based; conditions: human, HEK293 cells, at 50 µg/mL, read-out: Activity
# Escherichia coli [28] = test: Antibacterial activity against Escherichia coli ATCC 25922 incubated for 24 hrs by microtiter plate method; type: functional; conditions: Escherichia coli
# Staphylococcus aureus [29] = test: Antibacterial activity against methicillin resistant Staphylococcus aureus ATCC BAA-1556 incubated for 24 hrs; type: functional
# Enterococcus faecium [30] = test: Antibacterial activity against vancomycin-resistant Enterococcus faecium ATCC 700221 incubated for 24 hrs by microtiter plate method; type: functional
# Streptococcus pneumoniae = test: Antibacterial activity against multidrug resistant […] ATCC 700677 incubated for 24 hrs by microtiter plate method; type: functional
# Escherichia coli [31] = test: Antibacterial activity against Escherichia coli NDM-1-resistant ATCC BAA-2452 incubated for 24 hrs by microtiter plate method; type: functional
# Staphylococcus aureus [32] = test: Antibacterial activity against methicillin resistant Staphylococcus aureus ATCC BAA-1556 after 24 hrs in presence of fetal bovine serum by microtiter plate method; type: functional
# Escherichia coli [33] = test: Antibacterial activity against Escherichia coli ATCC 25922 after 24 hrs in presence of 1 mM of MgCl2 at by microtiter plate method; type: functional
# Staphylococcus aureus [34] = test: Bactericidal activity against methicillin resistant Staphylococcus aureus ATCC BAA-1556 assessed as reduction of bacterial growth at MIC by counting formed colonies; type: functional, organism-based; conditions: time <= 4.0 hrs, TDE = time-dependent effect
# Staphylococcus aureus [35] = test: Bactericidal activity against methicillin resistant Staphylococcus aureus ATCC BAA-1556 assessed as time required for complete reduction of bacterial growth at MIC by counting formed colonies; type: functional
# Escherichia coli [36] = test: Antibacterial activity against Escherichia coli ATCC 25922 after 24 hrs in presence of 150 mM NaCl by microtiter plate method; type: functional
Structure (SMILES),Activity (Cell membrane [1]),Activity (Escherichia coli [2]),Activity (Staphylococcus aureus [3]),"remaining at 24 h, 100 µM [4]",MIC (Pseudomonas aeruginosa [5]),MIC (Staphylococcus aureus [6]),"viability at 24 h, 50 ug/ml [7]",MIC (Staphylococcus aureus [8]),Activity (Escherichia coli [9]),MIC (Enterococcus faecium [10]),Activity (Escherichia coli [11]),"viability at 24 h, 150 ug/ml [12]",MIC (Staphylococcus aureus [13]),MIC (Escherichia coli [14]),MIC (Bacillus subtilis),Activity (Cell membrane [15]),MIC (Escherichia coli [16]),MIC (Escherichia coli [17]),MBC (Escherichia coli [18]),Activity (Escherichia coli [19]),other results
N=C(N)NCCC[C@@H]1NC(=O)[C@H](CCCNC(=N)N)NC(=O)[C@H](CCCNC(=N)N)NC(=O)[C@H](Cc2ccc3ccccc3c2)NC(=O)[C@H](Cc2ccc3ccccc3c2)NC(=O)[C@H](Cc2ccc3ccccc3c2)NC(=O)[C@H](CCCNC(=N)N)NC1=O (cyclo(RRRR[2Nal][2Nal][2Nal])),Dde,Tde,Tde,60%,12.5 µg/mL,3.1 µg/mL,93%,3.1 µg/mL,Tde,3.1 µg/mL,Active,36%,3.1 µg/mL,25 µg/mL,1.5 µg/mL,Dde,25 µg/mL,> 50 µg/mL,100 µg/mL,Active,"Activity (Lipid bilayer [20]): Active; Activity (Lipid bilayer [21]): 14%; MIC (Staphylococcus aureus [22]): 3.1 µg/mL; MIC (Klebsiella pneumoniae): 12.5 µg/mL; MIC (Staphylococcus aureus [23]): 3.1 µg/mL; MIC (Staphylococcus aureus [24]): 3.1 µg/mL; MIC (Pseudomonas aeruginosa [25]): 25 µg/mL; Ratio [26]: 2; viability at 24 h, 50 ug/ml [27]: 80%; MIC (Escherichia coli [28]; ATCC 25922, 24 h, read-out: MIC): 25 µg/mL; MBC (Staphylococcus aureus [29]): 6.2 µg/mL; MIC (Enterococcus faecium [30]): 3.1 µg/mL; MIC (Streptococcus pneumoniae): 12.5 µg/mL; MIC (Escherichia coli [31]): 12.5 µg/mL; MIC (Staphylococcus aureus [32]): 6.2 µg/mL; MIC (Escherichia coli [33]): 25 µg/mL; Activity (Staphylococcus aureus [34]): Tde; Activity (Staphylococcus aureus [35]): Active; MIC (Escherichia coli [36]): 25 µg/mL"
N=C(N)NCCC[C@@H]1NC(=O)[C@H](CCCNC(=N)N)NC(=O)[C@H](CCCNC(=N)N)NC(=O)[C@H](C(c2ccccc2)c2ccccc2)NC(=O)[C@H](C(c2ccccc2)c2ccccc2)NC(=O)[C@H](C(c2ccccc2)c2ccccc2)NC(=O)[C@H](CCCNC(=N)N)NC1=O (cyclo(RRRR[Dip][Dip][Dip])),Dde,Tde,Tde,65%,12.5 µg/mL,3.1 µg/mL,93%,3.1 µg/mL,Tde,3.1 µg/mL,Active,36%,6.2 µg/mL,12.5 µg/mL,1.5 µg/mL,Dde,12.5 µg/mL,50 µg/mL,25 µg/mL,Active,"Activity (Lipid bilayer [20]): Active; Activity (Lipid bilayer [21]): 18%; MIC (Staphylococcus aureus [22]): 3.1 µg/mL; MIC (Klebsiella pneumoniae): 12.5 µg/mL; MIC (Staphylococcus aureus [23]): 3.1 µg/mL; MIC (Staphylococcus aureus [24]): 3.1 µg/mL; MIC (Pseudomonas aeruginosa [25]): 25 µg/mL; Ratio [26]: 2; viability at 24 h, 50 ug/ml [27]: 80%; MIC (Escherichia coli [28]; ATCC 25922, read-out: MIC): 12.5 µg/mL; MBC (Staphylococcus aureus [29]): 6.2 µg/mL; MIC (Enterococcus faecium [30]): 3.1 µg/mL; MIC (Streptococcus pneumoniae): 25 µg/mL; MIC (Escherichia coli [31]): 12.5 µg/mL; MIC (Staphylococcus aureus [32]): 6.2 µg/mL; MIC (Escherichia coli [33]): 12.5 µg/mL; Activity (Staphylococcus aureus [34]): Tde; Activity (Staphylococcus aureus [35]): Active; MIC (Escherichia coli [36]): 12.5 µg/mL"
